Columns and labels:
recombinant human MAO-A = recombinant human MAO-A (Homo sapiens, UniProt P21397); assay: in vitro; assay type: in vitro ADME; details: role: substrate, hrMAO-A 0.02 mg/mL, test compound 1 μM, pH 7.4, 37° C.
Protocol: hrMAO-A and MAO control were purchased from XenoTech. The reaction mixture was prepared as described below. The test compound was added into the reaction mixture at a final concentration of 1 μM. The positive control, kynuramine (25 μM), was run simultaneously with the test compound in a separate reaction. The reaction mixture (without test compounds or kynuramine) was equilibrated in a shaking water bath at 37° C. for 5 minutes. The reaction was initiated by the addition of the test compound or kynuramine, and the mixture was incubated in a shaking water bath at 37° C. Aliquots (150 μL) of the test compound reaction mixture were withdrawn at 0, 5, 10, 20, 30,60, and 120 minutes. Aliquots (150 μL) of the positive control reaction mixture were withdrawn at 0 and 30 minutes. Test compound and kynuramine samples were immediately combined with 150 AL of ice-cold 100% acetonitrile containing 0.1% formic acid and internal standard (0.2 μM metoprolol) to terminate the reaction. The samples were then mixed and centrifuged to precipitate proteins. All samples were assayed by LC-MS/MS. The peak area response ratio (PARR) of analyte to internal standard at each time point was compared to the PARR at time 0 to determine the percent remaining at each time point. Half-lives were calculated using GraphPad software, fitting to a single-phase exponential decay equation.

in vitro = in vitro ADME, Male Sprague-Dawley rat; details: rat liver microsomes 0.5 mg/mL, 1 mM NADPH, test compound 1 μM, pH 7.4, 37° C.; read-out: RLM, t1/2
Protocol: Male Sprague-Dawley rat liver microsomes were purchased from XenoTech. The reaction mixture, minus NADPH, was prepared as described below. The test compound was added into the reaction mixture at a final concentration of 1 μM. The control compound, testosterone, was run simultaneously with the test compound in a separate reaction. The reaction mixture (without cofactor) was equilibrated in a shaking water bath at 37° C. for 5 minutes. The reaction was initiated by the addition of the cofactor, and the mixture was incubated in a shaking water bath at 37° C. Aliquots (150 μL) were withdrawn at 0, 5, 10, 20, 30, 60, and 120 minutes. Test compound and testosterone samples were immediately combined with 150 μL of ice-cold acetonitrile (ACN) containing 0.1% formic acid and internal standard to terminate the reaction. The samples were then mixed and centrifuged to precipitate proteins. All samples were assayed by LC-MS/MS using electrospray ionization. The peak area response ratio (PARR) of analyte to internal standard at each time point was compared to the PARR at time 0 to determine the percent remaining at each time point. Half-lives were calculated using GraphPad software, fitting to a single-phase exponential decay equation.

[1] = molecular target: T1, human serotonin 5-HT2A receptor (Homo sapiens, UniProt P28223); assay: Radioligand ([3H]LSD) competition binding, 5-HT2A receptor; details: in words; up to 10 μM for partial competition
T1 construct: host or cells: HEK293 (ATCC CRL-1573)
Protocol: (§1) Binding affinity (Ki) and functional potency and efficacy (EC50 and EMAX) values of the compounds were measured.
Radioligand competition binding was performed as previously described (Saraf, T. S., Felsing, D. E., Armstrong, J. L., Booth, R. G., and Canal, C. E., 2021, Evaluation of lorcaserin as an anticonvulsant in juvenile Fmr1 knockout mice, Epilepsy Res 175, 106677), with minor modifications, using human cloned 5-HT2A receptors. Plasmids encoding human serotonin 5-HT2A receptor cDNA were procured from the cDNA Resource Center. Human embryonic kidney cells (HEK293, ATCC CRL-1573) were grown in a cell incubator in 100 mm dishes with antibiotic-free Dulbecco's modified Eagle's medium containing 10% fetal bovine serum. Cells were transfected at ~85% confluency with 5-15 μg cDNA using TransIT-2020 reagent (Mirus Bio, Madison, Wisconsin). After approximately 48 hours, cell membrane was collected via centrifugation. For all experiments, serotonin (5-HT) hydrochloride was used as a positive control, and mianserin hydrochloride (10 μM) was used to define non-specific binding. Each cell membrane homogenate expressing 5-HT2A receptors was incubated at room temperature in 96-well plates with [^3H] […] Following equilibration, each sample was filtered rapidly under vacuum through fiberglass filters presoaked in a buffer and washed by vacuum several times with an ice-cold buffer. Filters were soaked with scintillation fluid and counts per minute were detected using photodetectors (Microbeta Scintillation Counter). […] Data shown are the results from all experiments combined. As is known, G protein-coupled receptors, including the 5-HT2A receptor, can exist in multiple conformations, and ligands, typically agonist ligands, have unique affinities for these conformations of the receptor (Kenakin, T. Theoretical Aspects of GPCR-Ligand Complex Pharmacology, Chem. Rev. 2017, 117, 1, 4-20). […] However, for simplicity reasons, affinity of these compounds are reported herein as fitted to the single-site model. The data point for −10 samples is total specific binding (no compound present), and −4 was interpolated to complete the binding curves to 0 specific binding.

5-HT2A receptor [2] = molecular target: T2, 5-HT2A receptor (Homo sapiens, UniProt P28223); assay: 5-HT2A receptor functional screening assay (efficacy relative to maximal 5-HT response); assay type: cell-based; details: for activation at 0.5 µM: 500 nM
T2 construct: expressed in transfected cells
Protocol: (§2) 5-HT2 receptor-mediated Gq stimulation [phosphoinositide hydrolysis leading to the production of inositol phosphate 1 (IP1)]-canonical signaling pathways-were measured as previously described (Canal, C. E., Cordova-Sintjago, T., Liu, Y., Kim, M. S., Morgan, D., and Booth, R. G., 2013, Molecular pharmacology and ligand docking studies reveal a single amino acid difference between mouse and human serotonin 5-HT2A receptors that impacts behavioral translation of novel 4-phenyl-2-dimethylaminotetralin ligands, J Pharmacol Exp Ther 347, 705-716; Canal, C. E., Morgan, D., Felsing, D., Kondabolu, K., Rowland, N. E., Robertson, K. L., Sakhuja, R., and Booth, R. G., 2014, A Novel Aminotetralin-Type Serotonin (5-HT)(2C) Receptor —Specific Agonist and 5-HT2A Competitive Antagonist/5-HT2B Inverse Agonist with Preclinical Efficacy for Psychoses, J Pharm Exp Ther 349, 533), for example, with a homogeneous time-resolved fluorescence (HTRF) capable microplate reader (e.g., Mithras LB 940, Berthold) using commercially-available kits employing Fluorescence Resonance Energy Transfer (FRET) technology (e.g., IP-One HTRF (Cisbio) kits). Briefly, CHO-K1 or HEK293 cells expressing a single serotonergic 5-HT2 receptor subtype were incubated with test compounds and 5-HT or DOI (positive control) in stimulation buffer containing LiCl. After equilibration, the reaction was terminated with the donor and acceptor fluorescent conjugates in lysis buffer, and FRET was measured with a microplate reader (Berthold Mithras). Data were fit to non-linear curves to calculate potencies (e.g., EC50) and efficacies (e.g., EMAX), relative to positive controls (e.g., serotonin).

5-HT2A receptor [3] = molecular target: T2, 5-HT2A receptor; assay: Competition binding assay with [125I]DOI, 5-HT2A receptor; details: [125I]DOI radioligand; read-out: 5-HT2A affinity
Protocol: as §1

5-HT2A receptor [4] = assay: Head-twitch response (HTR) and behavioral observation in mice; assay type: in vivo, adult, male C57BL/6J mice; details: 10 mg/kg PO, mice
Protocol: The HTR assay was performed in adult, male C57BL/6J mice, procured from the Jackson Laboratory (Bar Harbor, Maine), as previously described (Canal, C. E., and Morgan, D., 2012, Head-twitch response in rodents induced by the hallucinogen 2,5-dimethoxy-4-iodoamphetamine: a comprehensive history, a re-evaluation of mechanisms, and its utility as a model, Drug Test Anal 4, 556-576; Saraf, T. S., Felsing, D. E., Armstrong, J. L., Booth, R. G., and Canal, C. E., 2021, Evaluation of lorcaserin as an anticonvulsant in juvenile Fmr1 knockout mice, Epilepsy Res 175, 106677). Mice were housed in standard laboratory cages with ad libitum access to food and water, and were acclimated to the vivarium for at least one week prior to testing in a procedure room. On the day of testing, mice were acclimated to the procedure room in their home cages for ≥60 min before administration of test compounds. Test articles were administered at 10 mg/kg by oral gavage and mice were placed immediately thereafter in a clear, polycarbonate box (46×20×20 cm), and HTRs were counted for 30 consecutive minutes, using hand-held tally counters, by two trained observers who were blind to treatment.

[5] = humans (TIHKAL; Erowid); cited from earlier work
5-HT2B receptor = 5-HT2B receptor (Homo sapiens, UniProt P41595); assay: Dose-response 5-HT2B functional assay (IP1 formation); assay type: cell-based; details: for EC50 / 5-HT2B functional activity (in words): IP1 formation; for 5-HT2B functional activity (in words): dose-response; for Emax: percent of control agonist response
Protocol: (§3) FIG. 29 is a graph showing the dose-response 5-HT2B functional assay results as a percent of control agonist response for compounds III-2 and IV-21; tested in duplicate at the indicated concentrations and the EC50 values were determined by non-linear regression analysis of the concentration-response curves generated with mean replicate values using Hill equation curve fitting.
as §2
(§4) The results from tests of 5-HT2A functional activities of this series of compounds were also unexpected in the context of the unusual results observed from competition binding assays. […] Complete dose-response 5-HT2A and 5HT2B functional assays (measuring IP1 formation) were conducted for III-2 and IV-21 by a second, independent laboratory.

5-HT2A receptor [6] = molecular target: T2, 5-HT2A receptor; assay: Dose-response 5-HT2A functional assay (IP1 formation); assay type: cell-based; details: for 5-HT2A functional activity (in words): dose-response
Protocol: as §3, with “27” for “29”, “5-HT2A” for “5-HT2B”, “compound II-2;” for “compounds III-2 and IV-21;”, “fitting;” for “fitting.”
as §3, with “28” for “29”, “5-HT2A” for “5-HT2B”, “fitting; and” for “fitting.”
as §2, §4

T2 sequence (P28223 whole entry): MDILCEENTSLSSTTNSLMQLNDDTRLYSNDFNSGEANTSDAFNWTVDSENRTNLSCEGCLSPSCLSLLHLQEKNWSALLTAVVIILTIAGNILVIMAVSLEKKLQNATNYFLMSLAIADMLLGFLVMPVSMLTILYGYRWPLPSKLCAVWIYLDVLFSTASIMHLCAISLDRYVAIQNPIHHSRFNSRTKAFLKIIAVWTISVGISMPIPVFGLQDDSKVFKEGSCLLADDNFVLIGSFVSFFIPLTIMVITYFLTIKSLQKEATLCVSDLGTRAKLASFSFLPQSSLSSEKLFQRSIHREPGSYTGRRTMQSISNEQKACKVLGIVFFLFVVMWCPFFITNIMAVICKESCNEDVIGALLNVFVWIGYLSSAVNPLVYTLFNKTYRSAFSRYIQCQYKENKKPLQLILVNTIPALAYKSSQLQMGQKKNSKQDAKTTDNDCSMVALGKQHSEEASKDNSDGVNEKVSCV
5-HT2B receptor, sequence (P41595 whole entry): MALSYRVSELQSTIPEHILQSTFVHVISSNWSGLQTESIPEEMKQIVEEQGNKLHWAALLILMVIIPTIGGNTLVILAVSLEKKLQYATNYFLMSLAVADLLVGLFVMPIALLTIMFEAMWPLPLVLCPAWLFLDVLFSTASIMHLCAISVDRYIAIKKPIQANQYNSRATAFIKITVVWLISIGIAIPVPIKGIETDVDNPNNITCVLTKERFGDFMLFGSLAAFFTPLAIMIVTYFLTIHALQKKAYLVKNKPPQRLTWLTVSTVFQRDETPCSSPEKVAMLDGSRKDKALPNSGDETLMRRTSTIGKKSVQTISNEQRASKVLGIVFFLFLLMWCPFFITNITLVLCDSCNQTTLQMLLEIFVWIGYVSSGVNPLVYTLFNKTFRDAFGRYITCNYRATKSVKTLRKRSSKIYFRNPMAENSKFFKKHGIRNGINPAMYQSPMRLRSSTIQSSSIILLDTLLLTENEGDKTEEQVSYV
T1 sequence (P28223 whole entry): as the sequence (P28223 whole entry) above
recombinant human MAO-A, sequence (P21397 whole entry): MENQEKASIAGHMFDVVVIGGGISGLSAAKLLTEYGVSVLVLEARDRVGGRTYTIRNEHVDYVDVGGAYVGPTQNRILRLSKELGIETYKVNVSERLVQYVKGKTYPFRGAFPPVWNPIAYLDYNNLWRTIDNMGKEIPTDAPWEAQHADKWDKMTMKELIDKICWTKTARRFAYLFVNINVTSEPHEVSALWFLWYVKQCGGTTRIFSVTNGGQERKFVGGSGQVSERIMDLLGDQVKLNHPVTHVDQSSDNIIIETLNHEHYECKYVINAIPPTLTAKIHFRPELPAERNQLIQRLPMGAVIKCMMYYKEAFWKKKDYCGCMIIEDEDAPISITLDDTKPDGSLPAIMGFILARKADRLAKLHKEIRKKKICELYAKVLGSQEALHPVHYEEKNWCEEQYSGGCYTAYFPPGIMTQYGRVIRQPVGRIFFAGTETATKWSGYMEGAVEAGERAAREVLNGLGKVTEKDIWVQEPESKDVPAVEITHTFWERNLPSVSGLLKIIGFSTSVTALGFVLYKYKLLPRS

FC(F)(F)CNCCc1c[nH]c2ccccc12 [II-20, N-(2-(1H-indol-3-yl)ethyl)-2,2,2-trifluoroethan-1-amine]
half-life at 1 µM (recombinant human MAO-A): > 120 min | half-life at 1 µM (in vitro): 7.63 min | competition for [3H]LSD-labeled 5-HT2A receptors [1]: only partial competition

CN(CCc1c[nH]c2ccccc12)[S+]([O-])C(F)(F)F (centres unmarked) [II-15, N-(2-(1H-indol-3-yl)ethyl)-1,1,1-trifluoro-N-methylmethanesulfinamide]
activation at 0.5 µM (5-HT2A receptor [2]): -24.1% | activation at 50 µM (5-HT2A receptor [2]): -36.9% | 5-HT2A functional activity (in words) (5-HT2A receptor [2]; in vitro screening, II-15: both 500 nM and 50 μM): inverse agonist efficacy | Ki (5-HT2A receptor [3]): > 3000 nM

CN(CCc1c[nH]c2cccc(O)c12)CC(F)(F)F [III-13, 3-(2-(methyl (2,2,2-trifluoroethyl)amino)ethyl)-1H-indol-4-ol]
half-life at 1 µM (in vitro): 4.5 min

CCN(CC)CCc1c[nH]c2ccccc12 [DET, N,N-diethyltryptamine, reference compound]
elicitation of HTR (in words) (5-HT2A receptor [4]): inactive at eliciting the HTR | qualitative behavioral changes (5-HT2A receptor [4]): accelerated breathing, hyperlocomotion, hiccup responses, and chewing movements of mouth | oral activity in humans [5]: active orally in humans

Oc1cccc2[nH]cc(CCN(CCC(F)F)CCC(F)F)c12 [III-2, 3-(2-(bis(3,3-difluoropropyl)amino)ethyl)-1H-indol-4-ol]
activation at 0.5 µM (5-HT2A receptor [2]): 58.3% | activation at 50 µM (5-HT2A receptor [2]): > 50% | EC50 (5-HT2B receptor): 96 nM | 5-HT2B functional activity (in words) (5-HT2B receptor): partial agonist | Emax (5-HT2B receptor): 65% | EC50 (5-HT2A receptor [6]; IP1 formation): 383 nM | 5-HT2A functional activity (in words) (5-HT2A receptor [6]; IP1 formation): low potency, full agonist

CN(C)CCc1c[nH]c2ccc(OC(F)(F)F)cc12 [IV-3, N,N-dimethyl-2-(5-(trifluoromethoxy)-1H-indol-3-yl) ethan-1-amine]
half-life at 1 µM (in vitro): 13.1 min

CN(CCc1c[nH]c2ccccc12)CC(F)(F)F [II-19, N-(2-(1H-indol-3-yl)ethyl)-2,2,2-trifluoro-N-methylethan-1-amine]
half-life at 1 µM (in vitro): 3.95 min | competition for [3H]LSD-labeled 5-HT2A receptors [1]: only partial competition

COc1ccc2[nH]cc(CCN(C)CC(F)(F)F)c2c1 [IV-40, 2,2,2-trifluoro-N-(2-(5-methoxy-1H-indol-3-yl)ethyl)-N-methylethan-1-amine]
half-life at 1 µM (in vitro): 4.55 min

COc1ccc2[nH]cc(CCN(C)CCC(F)(F)F)c2c1 [IV-21, 3,3,3-trifluoro-N-(2-(5-methoxy-1H-indol-3-yl)ethyl)-N-methylpropan-1-amine]
activation at 0.5 µM (5-HT2A receptor [2]): 29.5% | EC50 (5-HT2B receptor): 394 nM | 5-HT2B functional activity (in words) (5-HT2B receptor): partial agonist | Emax (5-HT2B receptor): 62% | EC50 (5-HT2A receptor [6]; IP1 formation): > 3000 nM | EC50 (5-HT2A receptor [6]; dose-response curve had not plateaued at 3 μM): > 3000 nM | 5-HT2A functional activity (in words) (5-HT2A receptor [6]; IP1 formation): low potency, EC50>3 μM, agonist
